# Laboratory results taken from patent US10308617B2, “Triazole benzamide derivatives and the compositions and methods of treatment regarding the same” (An2H Discovery Limited, priority 2016, dated 2019).
# Molecular target: T1, Parkin ligase (Homo sapiens, UniProt O60260)
# T1 sequence (O60260 1-465): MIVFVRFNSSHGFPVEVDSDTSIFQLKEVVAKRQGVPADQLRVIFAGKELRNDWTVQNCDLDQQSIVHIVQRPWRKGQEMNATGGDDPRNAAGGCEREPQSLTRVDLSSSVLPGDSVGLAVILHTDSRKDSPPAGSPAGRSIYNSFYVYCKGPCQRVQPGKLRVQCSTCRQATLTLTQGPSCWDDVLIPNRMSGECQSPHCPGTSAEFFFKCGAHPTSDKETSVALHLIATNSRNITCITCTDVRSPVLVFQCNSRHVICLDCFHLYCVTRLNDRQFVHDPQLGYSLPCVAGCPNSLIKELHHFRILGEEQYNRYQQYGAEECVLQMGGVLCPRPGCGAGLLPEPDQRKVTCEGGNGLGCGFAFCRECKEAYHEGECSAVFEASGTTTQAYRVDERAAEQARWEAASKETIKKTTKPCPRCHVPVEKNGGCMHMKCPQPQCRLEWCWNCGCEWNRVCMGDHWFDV
# Assay: Activity-Based Probe Assay using an Ubiquitin vinyl sulfone probe (TR-FRET)
# Assay type: biochemical
# Conditions: not given
# Protocol: An Ubiquitin vinyl sulfone probe can be used that irreversibly binds to the active site cysteine of Parkin ligase. Covalent attachment of the probe to the Parkin can be monitored by TR-FRET. Candidate activator compounds can be identified by increasing the activity of Parkin ligase due to an increase in TR-FRET signal. Screening for activating compounds can be distinguished from the controls as follows: • 100% activation signal=Heat activated Parkin+100 nM control activator in DMSO. • 0% activation signal=Heat activated Parkin+DMSO only. • Parkin activators can be identified by an increase of the 0% activation signal TR-FRET signal.
# • Assay Plate: White 384 well plate (Corning 3572) • Enzyme: Parkin-His tagged 203 μM (10.5 mg/ml) • Probe: Ubiquitin vinyl-sulfone (HA-Ub-VS Boston Biochem U-212) • DMSO: DMSO (Sigma cat # D4540-100ML) • Reaction Buffer: 50 mM HEPES (pH 8.5), 150 mM NaCl, 0.01% Tween 20, 0.1% BSA • Detection Buffer: 50 mM HEPES (pH 8.5), 150 mM NaCl, 0.01% Tween 20, 0.1% BSA, 800 mM KF • Detection Reagent A: 2.6 nM Anti-6HIS-Eu cryptate and 40 nM Anti-HA-XL665 in detection buffer • Eu cryptate: Anti-6HIS-Eu cryptate (CisBio 61HISKLA) • XL665: Anti-HA-XL665 (CisBio 610HAXLA) Enzyme Reaction (15 min pre incubation Parkin with activator only) • Parkin: 40 nM • HA-Ub-VS Probe: 70 nM • Activator/DMSO: 2× Activator/2% DMSO • Reaction time: 60 minutes • Temperature: 22° C. • Total volume: 10 μl reaction Detection Reaction • Take 10 μl of Enzyme Reaction above and add 10 μl detection Reagent A under the following conditions: • Reaction time: 60 minutes • Temperature: 22° C. • Total volume: 20 μl
# Assay procedure (Using HP D-300 compound dispenser and Bravo for the operation): • 1) Heat activate Parkin in reaction buffer (500 μl/1.5 ml tube: Eppendorf Thermomixer 5 minutes, 400 rpm at 58° C. and put on ice until needed). • 2) Load assay plate wells with 4.8 μl 84.5 nM Parkin in reaction buffer by use of Bravo. • 3) Deliver 0.2 μl 200× activator candidates in DMSO by use of HP D-300 compound dispenser. Highest 200× concentration=[…] and then twofold dilutions. • 4) Spin 1000 rpm, 2 minutes, at room temp. • 5) Incubate plate for 15 minutes at room temp. • 6) Add 5 μl 140 nM HA-Ub-VS Probe in reaction buffer by use of Bravo. • 7) Spin 1000 rpm, 2 minutes, at room temp. • 8) Incubate plate for 60 minutes at room temp. • 9) Add 10 μl 2.6 nM Anti-6HIS-Eu cryptate and 40 nM Anti-HA-XL665 in detection buffer. • 10) Spin 1000 rpm, 2 minutes, at room temp. • 11) Incubate plate for 60 minutes at room temp. • 12) Read plates on Perkin Elmer Envision instrument with the following parameters: • LANCE dual laser protocol loaded into the Envision® software • Top Mirror: LANCE/DELFIA Duel/Bias (Bar code 446) • Emission Filter: APC 665 EM (Bar code 205) • 2nd Emission Filter: Europium 615 EM (Bar code 203) • Read 655 nm (channel 1) and 615 nm (channel 2) wavelengths on Envision®
# Data Analysis: The Data can be read in CSV files. There are two tables in those CSV files, which are the values of 655 nm (channel 1) and 615 nm (channel 2) wavelengths respectively. The data is converted to an HTRF Ratio=(Channel 1/Channel 2)*10,000
# The average of all the 0 uM controls (DMSO only)=BKGD (Background—0% activation). Subtract BKGD from each HTRF Ratio value=HTRF-BKGD. The average of all the […] 100 nM control activator in DMSO controls=Max (100% activation). The following equation is then used to calculate % Activation for each well/candidate as follows: % Activation=(HTRF-BKGD/Max)*100.
# Graphpad Prisim was used with Transform X values: X=Log(X) and nonlinear regression (dose-response-stimulation): Log(agonist) vs Response—variable slope (four parameters) with constrains set to Bottom=0 and Top=100.
# The Activity-Based Probe Assay was performed with various compounds in Tables 1-3.
row,Parkin Ligase reaction with the Activity-based Ubiquitin vinyl sulfone probe,SMILES
1,increases,"O=C(/C=C/c1ccccc1)Nc1nc(NC(=O)c2ccccc2)nn1-c1ccccc1 [Compound C, N-(5-cinnamamido-1-phenyl-1H-1,2,4-triazol-3-yl)benzamide]"
2,increases,"O=C(Nc1nc(NC(=O)c2ccccc2)n(-c2ccccc2)n1)c1ccccc1 [Compound A, N,N′-(1-phenyl-1H-1,2,4-triazole-3,5-diyl)dibenzamide]"

# Same assay, conditions: Parkin activation, HA-Ub-VS probe, heat activated Parkin; read-out: Probe Assay EC50 (μM) [Example 2]
row,EC50 [µM],SMILES
1,4,Cc1ccccc1C(=O)Nc1nc(Nc2ncnc3ccccc23)n(-c2ccccc2)n1 [Compound R2]
2,12.8,O=C(Nc1nc(Nc2nc(O)c3ccccc3n2)n(-c2ccccc2)n1)c1ccccc1 [Compound O1]
3,> 100,O=C(Nc1nc(Nc2cc(N3CCCC3)ncn2)n(-c2ccccc2)n1)c1ccccc1 [Compound G1]
4,> 100,O=C(Nc1nc(NC(=O)c2ccc(I)cc2)n(-c2ccccc2)n1)c1ccc(I)cc1 [D]
5,> 100,O=C(Nc1nc(Nc2ccncn2)n(-c2ccccc2)n1)c1ccccc1 [Compound H1]
6,15.1,"O=C(/C=C/c1ccccc1)Nc1nc(NC(=O)c2ccccc2)nn1-c1ccccc1 [Compound C, N-(5-cinnamamido-1-phenyl-1H-1,2,4-triazol-3-yl)benzamide]"
7,7,"O=C(Nc1nc(NC(=O)c2ccccc2)n(-c2ccccc2)n1)c1ccccc1 [Compound A, N,N′-(1-phenyl-1H-1,2,4-triazole-3,5-diyl)dibenzamide]"
8,> 100,Cc1ccccc1C(=O)Nc1nc(C2CCOCC2)nn1-c1ccccc1 [Compound V2]
9,3.7,O=C(Nc1nc(Nc2ncnc3ccccc23)n(-c2ccccc2)n1)c1cccs1 [Compound C1]
10,> 100,Cc1ccccc1C(=O)Nc1nc(-c2cccnc2)nn1-c1ccccc1 [Compound T2]
11,> 100,O=C(Nc1nc(NC(=O)c2cccc([N+](=O)[O-])c2)n(-c2ccccc2)n1)c1ccccc1 [Compound V1]
12,> 100,Nc1nc(Nc2nc(NC(=O)c3ccccc3)nn2-c2ccccc2)c2ccccc2n1 [Compound J1]
13,22,c1ccc(-n2nc(-c3ccccn3)nc2Nc2ncnc3ccccc23)cc1 [Compound U2]
14,> 100,CCN(CC)c1cc(Nc2nc(NC(=O)c3ccccc3)nn2-c2ccccc2)ncn1 [Compound F1]
15,6.7,"Cc1ccccc1C(=O)Nc1nc(NC(=O)c2ccccc2C)n(-c2ccccc2)n1 [Compound F, 2-methyl-N-[5-[(2-methylbenzoyl)amino]-1-phenyl-1,2,4-triazol-3-yl]benzamide]"
16,> 100,O=C(Nc1nc(Nc2ccnc3ccccc23)n(-c2ccccc2)n1)c1ccccc1 [Compound I1]
